Peptide text beside a SMILES is read from it.
Columns and labels:
[1] = biological target: T1, FLS2 (Arabidopsis thaliana, UniProt Q9FL28); test: ROS assay in leaf discs; type: cell-based; details: flg22-induced ROS; Supplementary Fig. S1B
T1 construct: treating Col and fls2 leaf discs (prefloated on water overnight) with 1 μM peptide and measuring ROS induction; from tissue; host or cells: Arabidopsis thaliana Col leaf discs (fls2 mutant as negative control)
Description: Bioactivity was verified for each batch of peptides by treating Col and fls2 leaf discs (prefloated on water overnight) with 1 μM peptide and measuring ROS induction as described in ([Tateda et al., 2014]).

[2] = test system: Arabidopsis plants; test: Long-distance transport after surface application of fluorescent peptide; type: in vivo, Arabidopsis thaliana; details: 1 d
Description: We applied 10–20 μl of 5 μM TAMRA–flg22 (without or with inhibitors: 50 μM MG132 or 50 mM BDM) to a filter paper disc placed on the adaxial side of one leaf of in vitro-grown Arabidopsis plants and distal tissues were imaged by confocal microscopy after 1 d. For experiments with mixed peptides, 5 μM TAMRA–flg22 + 10 μM FAM–scrambled peptides were used.
[^14C]sucrose radioactivity was quantified in a scintillation counter.

[3] = test system: Arabidopsis leaf discs; test: Subcellular localization, uptake and accumulation of flg22 in leaf discs; type: cell-based, Arabidopsis thaliana; details: Col leaf discs
Description: Leaf discs were floated (abaxial side down) on 1–5 μM TAMRA–flg22 or 5–10 μM FAM–flg22 solution (in water) at room temperature for the indicated time (lower concentrations were used for overnight treatments). Inhibitors that affect endocytosis, MG132 (Sigma-Aldrich, 50 μM) or 2,3-butanedione monoxime (BDM; Sigma-Aldrich, 50 mM) were added at the same time as the peptides. FM4-64 (Invitrogen, 6–8 μM) or 2′,7′-bis-(2-carboxyethyl)-5-(and-6)-carboxyfluorescein (BCECF)-AM (cleaved by an endogenous plant esterase to BCECF, Invitrogen, 20–40 μM) mixed with peptide solution was vacuum infiltrated for 2 min into leaf discs ([Kang et al., 2014]) prior to incubation (floating on peptide/dye solution) for the indicated time. In some experiments FAM–Y-flg22 was used with results similar to FAM–flg22.
For experiments with mixed peptides, leaf discs were floated for the indicated time on 2 μM FAM–flg22, FAM–scrambled peptide or fluorescein mixed with 1 μM TAMRA–flg22. In all experiments, leaf discs were washed after treatment by gently shaking for several minutes in water and the abaxial side was imaged by confocal or epifluorescence microscopy (see ‘Microscopy’). Fluorescence intensity profiles were generated with ImageJ, as in [Spallek et al., (2013)] and [Bozkurt et al. (2015)] (see ‘Data analysis’).
Confocal images were obtained using a Zeiss LSM710 laser-scanning confocal microscope (Zeiss, Germany) as described in [Kang et al. (2014)]. Fluorescence was visualized as follows: GFP/FAM/fluorescein/BCECF excitation (ex) 488 nm/emission (em) 495–545 nm; TAMRA ex 561 nm/em 566–620 nm; FM4-64: ex 561 nm/em 686–758 nm. Green and red fluorescence was acquired for the same field using a sequential acquisition mode.
Fluorescence intensity profiles were generated with ImageJ (http://rsb.info.nih.gov/ij, last accessed 6 April 2017) using RGB Profiler and Color Profiler. Fluorescent puncta were manually counted in 20 μm × 20 μm confocal image areas as in [Irani et al. (2012)] and [Chaparro-Garcia et al., (2015)] and shown as a fraction ([Irani et al., 2012]; [Choi et al., 2013]). […]

[4] = test system: Arabidopsis FLS2; details: ref Bauer et al., 2001; cited from earlier work
Description: The fate of flg22 inside plant cells is similar to that of Potato mop-top and Cauliflower mosaic virus movement proteins, which are endocytosed and delivered to pre-vacuoles/late endosomal structures ([Haupt et al., 2005]; [Carluccio et al., 2014]). Endosomal trafficking of the movement proteins is essential for the spread of viruses to distal tissues, as is endocytosis of flg22 for efficient peptide movement to systemic tissue, although ...

T1 sequence (Q9FL28 24-1173): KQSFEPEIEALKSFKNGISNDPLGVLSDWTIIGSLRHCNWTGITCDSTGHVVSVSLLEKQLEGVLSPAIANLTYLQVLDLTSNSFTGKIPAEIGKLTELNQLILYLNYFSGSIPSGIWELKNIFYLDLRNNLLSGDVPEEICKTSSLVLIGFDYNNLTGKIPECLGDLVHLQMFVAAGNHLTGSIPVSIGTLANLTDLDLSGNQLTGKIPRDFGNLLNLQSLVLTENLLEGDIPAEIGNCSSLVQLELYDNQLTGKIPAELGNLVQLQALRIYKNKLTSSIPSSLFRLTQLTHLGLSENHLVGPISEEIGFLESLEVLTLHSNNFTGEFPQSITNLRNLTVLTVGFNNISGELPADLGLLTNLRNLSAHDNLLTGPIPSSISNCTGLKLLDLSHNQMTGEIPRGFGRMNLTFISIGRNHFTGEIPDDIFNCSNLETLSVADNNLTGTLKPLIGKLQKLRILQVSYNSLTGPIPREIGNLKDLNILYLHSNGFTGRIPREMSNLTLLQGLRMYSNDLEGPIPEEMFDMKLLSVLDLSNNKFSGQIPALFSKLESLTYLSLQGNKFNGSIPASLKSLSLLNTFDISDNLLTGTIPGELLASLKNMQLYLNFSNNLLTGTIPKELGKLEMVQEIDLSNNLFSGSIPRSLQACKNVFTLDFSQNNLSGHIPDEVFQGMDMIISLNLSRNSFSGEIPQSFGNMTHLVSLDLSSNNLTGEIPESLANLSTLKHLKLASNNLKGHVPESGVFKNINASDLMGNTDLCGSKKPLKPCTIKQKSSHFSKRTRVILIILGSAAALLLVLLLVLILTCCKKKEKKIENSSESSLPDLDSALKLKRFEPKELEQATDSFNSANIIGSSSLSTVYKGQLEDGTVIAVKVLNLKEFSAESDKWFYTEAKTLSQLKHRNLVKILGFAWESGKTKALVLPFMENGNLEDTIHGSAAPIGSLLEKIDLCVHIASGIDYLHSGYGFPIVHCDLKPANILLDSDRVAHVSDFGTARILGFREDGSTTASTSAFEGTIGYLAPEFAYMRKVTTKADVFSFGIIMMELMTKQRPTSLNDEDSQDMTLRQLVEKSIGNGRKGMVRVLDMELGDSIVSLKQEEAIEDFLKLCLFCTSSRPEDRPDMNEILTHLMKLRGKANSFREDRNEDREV
T1 sequence (Q94F62 26-615 partner): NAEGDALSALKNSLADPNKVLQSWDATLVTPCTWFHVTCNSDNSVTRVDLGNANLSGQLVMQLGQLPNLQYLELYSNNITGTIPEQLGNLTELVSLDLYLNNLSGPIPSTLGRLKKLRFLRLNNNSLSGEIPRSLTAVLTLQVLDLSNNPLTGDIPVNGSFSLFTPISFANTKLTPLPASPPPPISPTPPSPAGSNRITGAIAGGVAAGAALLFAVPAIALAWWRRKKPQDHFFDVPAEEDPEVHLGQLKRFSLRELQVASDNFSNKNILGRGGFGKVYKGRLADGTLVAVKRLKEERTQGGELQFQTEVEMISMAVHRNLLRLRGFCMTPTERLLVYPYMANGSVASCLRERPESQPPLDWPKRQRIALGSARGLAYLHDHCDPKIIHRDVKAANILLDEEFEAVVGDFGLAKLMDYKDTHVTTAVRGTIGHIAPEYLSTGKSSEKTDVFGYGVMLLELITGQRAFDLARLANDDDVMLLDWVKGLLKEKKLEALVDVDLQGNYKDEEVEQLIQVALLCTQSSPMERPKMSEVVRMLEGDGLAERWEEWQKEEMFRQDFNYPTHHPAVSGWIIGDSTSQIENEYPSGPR

## CC(=O)C(C)=NO [BDM, 2,3-butanedione monoxime, reference compound]
[1]
  effect of endocytosis inhibitor on defense activation measured by ROS production: impaired defense activation
[2]; Col, 5 μM TAMRA–flg22 with 50 μM MG132 or 50 mM BDM on filter paper disc
  effect of inhibitor on long-distance movement of TAMRA–flg22: prevented
[3]; 5 μM TAMRA–flg22 with 50 μM MG132 or 50 mM BDM added simultaneously, 1–2 h
  effect of inhibitor on initial binding/uptake of TAMRA–flg22: did not prevent initial peptide binding/uptake
[3]; 1–2 μM TAMRA–flg22 with 50 μM MG132 or 50 mM BDM, overnight
  effect of inhibitor on overnight accumulation of TAMRA–flg22 in vacuoles: did not accumulate in vacuoles

## CC[C@H](C)[C@H](NC(=O)[C@H](CCC(N)=O)NC(=O)[C@H](CC(C)C)NC(=O)CNC(=O)[C@H](C)NC(=O)[C@H](C)NC(=O)[C@H](CC(=O)O)NC(=O)[C@H](CC(=O)O)NC(=O)[C@H](CCCCN)NC(=O)[C@H](C)NC(=O)[C@H](CO)NC(=O)[C@H](CC(N)=O)NC(=O)[C@@H](NC(=O)[C@H](CCCNC(=N)N)NC(=O)[C@H](CO)NC(=O)CNC(=O)[C@@H](NC(=O)[C@H](CO)NC(=O)[C@H](CC(C)C)NC(=O)[C@H](CCCNC(=N)N)NC(=O)[C@@H](N)CCC(N)=O)[C@@H](C)O)[C@@H](C)CC)C(=O)N[C@@H](C)C(=O)O [flg22] (H-QRLSTGSRINSAKDDAAGLQIA-OH)
[2]; fls2 and bak1 mutants versus Col, 5 μM on filter paper disc, confocal, P<0.0002, n≥7
  amount detected in distal organs: significantly less
[4]
  reversibility of binding to microsomal membranes: reversible

Reference: paper PMC5444442, “Flagellin peptide flg22 gains access to long-distance trafficking in Arabidopsis via its receptor, FLS2” (Journal of Experimental Botany, 2017)
